From patent US9409866B2, “Pyridine-2-amides useful as CB2 agonists” (Hoffmann-La Roche Inc., priority 2012, dated 2016)
Read-outs that look alike come from different tables or passages of the source.

Tests used:
human CB1 receptors = human CB1 receptors (Homo sapiens (Human), UniProt P21554); experiment: functional cAMP assay, CHO cells expressing human CB1; format: cell-based
Procedure: (§1) CHO cells expressing human CB1 or CB2 receptors are seeded 17-24 hours prior to the experiment 50.000 cells per well in a black 96 well plate with flat clear bottom (Corning Costar #3904) in DMEM (Invitrogen No. 31331), 1×HT supplement, with 10% fetal calf serum and incubated at 5% CO2 and 37° C. in a humidified incubator. The growth medium was exchanged with Krebs Ringer Bicarbonate buffer with 1 mM IBMX and incubated at 30° C. for 30 min. Compounds were added to a final assay volume of 100 μl and incubated for 30 min at 30° C. Using the cAMP-Nano-TRF detection kit the assay (Roche Diagnostics) was stopped by the addition of 50 μl lysis reagent (Tris, NaCl, 1.5% Triton X100, 2.5% NP40, 10% NaN3) and 50 μl detection solutions (20 μM mAb Alexa700-cAMP 1:1, and 48 μM Ruthenium-2-AHA-cAMP) and shaken for 2 h at room temperature. The time-resolved energy transfer is measured by a TRF reader (Evotec Technologies GmbH), equipped with a ND:YAG laser as excitation source. The plate is measured twice with the excitation at 355 nm and at the emission with a delay of 100 ns and a gate of 100 ns, total exposure time 10 s at 730 (bandwidth 30 nm) or 645 nm (bandwidth 75 nm), respectively. The FRET signal is calculated as follows: FRET=T730-Alexa730-P(T645-B645) with P=Ru730-B730/Ru645-B645, where T730 is the test well measured at 730 nM, T645 is the test well measured at 645 nm, B730 and B645 are the buffer controls at 730 nm and 645 nm, respectively. cAMP content is determined from the function of a standard curve spanning from 10 μM to 0.13 nM cAMP.
(§2) EC50 values were determined using Activity Base analysis (ID Business Solution, Limited). The EC50 values for a wide range of cannabinoid agonists generated from this assay were in agreement with the values published in the scientific literature.

human CB2 receptors = human CB2 receptors (Homo sapiens (Human), UniProt P34972); experiment: functional cAMP assay, CHO cells expressing human CB2; format: cell-based
Chain of human CB2 receptors (P34972 whole entry): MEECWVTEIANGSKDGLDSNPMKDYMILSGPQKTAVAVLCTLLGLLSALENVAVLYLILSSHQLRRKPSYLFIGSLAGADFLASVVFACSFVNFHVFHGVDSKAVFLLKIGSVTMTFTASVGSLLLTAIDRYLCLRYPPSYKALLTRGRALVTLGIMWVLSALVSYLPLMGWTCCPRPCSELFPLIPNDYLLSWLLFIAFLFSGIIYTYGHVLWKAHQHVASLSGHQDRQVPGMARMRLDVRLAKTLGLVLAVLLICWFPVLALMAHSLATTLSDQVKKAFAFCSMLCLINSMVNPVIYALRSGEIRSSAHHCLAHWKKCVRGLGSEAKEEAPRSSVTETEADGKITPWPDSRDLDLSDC
Procedure: as §1, §2

[1] = functional cAMP assay, CHO cells expressing human CB1; read-out: Human CB1 EC50
[2] = Human CB1 EC50 (uM), functional cAMP assay, CHO cells expressing human CB1
[3] = read-out: Human CB1 EC50; functional cAMP assay, CHO cells expressing human CB1

Chain of human CB1 receptors (P21554 whole entry): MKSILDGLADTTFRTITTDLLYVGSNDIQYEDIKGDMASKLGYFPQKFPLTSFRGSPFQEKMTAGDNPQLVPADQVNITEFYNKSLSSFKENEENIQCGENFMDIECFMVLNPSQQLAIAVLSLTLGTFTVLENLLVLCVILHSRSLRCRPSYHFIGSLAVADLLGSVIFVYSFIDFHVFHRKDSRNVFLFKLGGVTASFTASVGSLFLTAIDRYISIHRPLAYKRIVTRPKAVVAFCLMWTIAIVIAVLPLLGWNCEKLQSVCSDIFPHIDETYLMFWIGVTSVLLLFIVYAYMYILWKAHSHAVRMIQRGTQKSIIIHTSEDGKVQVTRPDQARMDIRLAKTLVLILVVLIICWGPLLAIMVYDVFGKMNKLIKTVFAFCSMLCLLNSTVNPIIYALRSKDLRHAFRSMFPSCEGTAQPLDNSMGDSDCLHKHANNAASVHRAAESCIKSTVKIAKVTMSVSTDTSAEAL

| Compound | EC50 (human CB1 receptors; [1]) [µM] | EC50 (human CB2 receptors; read-out: Human CB2 EC50) [µM] | EC50 (human CB1 receptors; [2]) [µM] | EC50 (human CB2 receptors; Human CB2 EC50 (uM)) [µM] | EC50 (human CB1 receptors; [3]) [µM] |
| --- | --- | --- | --- | --- | --- |
| Cc1nnc(C(C)(CC2CC2)NC(=O)c2cc(OCC(F)(F)F)c(C3CC3)cn2)o1 (centres unmarked) [Example 173, 5-cyclopropyl-N-[1-cyclopropyl-2-(5-methyl-1,3,4-oxadiazol-2-yl)propan-2-yl]-4-(2,2,2-trifluoroethoxy)pyridine-2-carboxamide] | > 10 | 0.0544 | – | – | – |
| Cc1nc(C(NC(=O)c2cc(O[C@@H](C)C(F)(F)F)c(C3CC3)cn2)C(C)(C)C)no1 (stereo partly drawn) [Example 214, 5-cyclopropyl-N-[2,2-dimethyl-1-(5-methyl-1,2,4-oxadiazol-3-yl)propyl]-4-[(2S)-1,1,1-trifluoropropan-2-yl]oxypyridine-2-carboxamide] | > 10 | 0.008 | – | – | – |
| C[C@H](Oc1cc(C(=O)NC(C)(C#N)CC2CC2)ncc1C1(F)COC1)C(F)(F)F (stereo partly drawn) [Example 143, N-(2-cyano-1-cyclopropylpropan-2-yl)-5-(3-fluorooxetan-3-yl)-4-[(2S)-1,1,1-trifluoropropan-2-yl]oxypyridine-2-carboxamide] | > 10 | 0.246 | – | – | – |
| Cc1nc([C@](C)(CC2CC2)NC(=O)c2cc(OCC(F)(F)F)c(Cl)cn2)no1 (single isomer, unassigned) [Example 94, 5-Chloro-4-(2,2,2-trifluoro-ethoxy)-pyridine-2-carboxylic acid [2-cyclopropyl-1-methyl-1-(5-methyl-[1,2,4]oxadiazol-3-yl)-ethyl]-amide] | – | – | > 10 | 0.0747 | – |
| CNC(=O)CC(C)(NC(=O)c1cc(OCC(F)(F)F)c(C2CC2)cn1)C1CC1 (single isomer, unassigned) [Example 241, 5-cyclopropyl-N-[2-cyclopropyl-4-(methylamino)-4-oxobutan-2-yl]-4-(2,2,2-trifluoroethoxy)pyridine-2-carboxamide] | – | – | > 10 | 0.0119 | – |
| NC(=O)CC(NC(=O)c1cc(OCC(F)(F)F)c(C2CC2)cn1)C1CC1 (centres unmarked) [Example 193, N-(3-amino-1-cyclopropyl-3-oxopropyl)-5-cyclopropyl-4-(2,2,2-trifluoroethoxy)pyridine-2-carboxamide] | > 10 | 0.114 | – | – | – |
| CC(CC1CC1)(NC(=O)c1cc(OCC(F)(F)F)c(C2CC2)cn1)c1nnn[nH]1 (centres unmarked) [Example 159, 5-cyclopropyl-N-[1-cyclopropyl-2-(1H-tetrazol-5-yl)propan-2-yl]-4-(2,2,2-trifluoroethoxy)pyridine-2-carboxamide] | > 10 | 0.935 | – | – | – |
| Cc1nc(C(C)(CC2CC2)NC(=O)c2cc(OCC(F)(F)F)c(C3(F)COC3)cn2)no1 (centres unmarked) [Example 131, N-[1-cyclopropyl-2-(5-methyl-1,2,4-oxadiazol-3-yl)propan-2-yl]-5-(3-fluorooxetan-3-yl)-4-(2,2,2-trifluoroethoxy)pyridine-2-carboxamide] | > 10 | 0.0263 | – | – | – |
| Cc1csc(C2(NC(=O)c3cc(OCC(F)(F)F)c(C4CC4)cn3)CCOCC2)n1 [Example 152, 5-cyclopropyl-N-[4-(4-methyl-1,3-thiazol-2-yl)oxan-4-yl]-4-(2,2,2-trifluoroethoxy)pyridine-2-carboxamide] | > 10 | 0.185 | – | – | – |
| O=C(N[C@@H](c1cccnc1)C(F)(F)F)c1cc(OCc2ccc(F)cc2)c(Cl)cn1 [Example 40, 5-Chloro-4-(4-fluoro-benzyloxy)-pyridine-2-carboxylic acid ((S)-2,2,2-trifluoro-1-pyridin-3-yl-ethyl)-amide] | 0.0901 | 0.005 | – | – | – |
| Cc1nc(C(C)(NC(=O)c2cc(OCC(F)(F)F)c(C3(F)CCC3)cn2)C2CC2)no1 (single isomer, unassigned) [Example 306, N-(1-cyclopropyl-1-(5-methyl-1,2,4-oxadiazol-3-yl)ethyl)-5-(1-fluorocyclobutyl)-4-(2,2,2-trifluoroethoxy)picolinamide] | – | – | > 10 | 0.0118 | – |
| O=C(NC(c1ccccn1)C(F)(F)F)c1cc(OCC(F)(F)F)c(C2CC2)cn1 (centres unmarked) [Example 51, 5-Cyclopropyl-4-(2,2,2-trifluoro-ethoxy)-pyridine-2-carboxylic acid (2,2,2-trifluoro-1-pyridin-2-yl-ethyl)-amide] | > 10 | 0.0122 | – | – | – |
| Cc1nc(C(C)(CO)NC(=O)c2cc(OCC(F)(F)F)c(C3CC3)cn2)no1 (single isomer, unassigned) [Example 141, 5-cyclopropyl-N-[1-hydroxy-2-(5-methyl-1,2,4-oxadiazol-3-yl)propan-2-yl]-4-(2,2,2-trifluoroethoxy)pyridine-2-carboxamide] | – | – | – | 0.0968 | > 10 |
| CC(CF)Oc1cc(C(=O)NC2(CC(N)=O)CS(=O)(=O)C2)ncc1C1CC1 (single isomer, unassigned) [Example 291, N-[3-(2-amino-2-oxoethyl)-1,1-dioxothietan-3-yl]-5-cyclopropyl-4-[1-fluoropropan-2-yl]oxypyridine-2-carboxamide] | – | – | > 10 | 0.0003 | – |
| CNC(=O)C(C)(CC1CC1)NC(=O)c1cc(OCC(F)(F)F)c(C2CC2)cn1 (centres unmarked) [Example 189, 5-cyclopropyl-N-[3-cyclopropyl-2-methyl-1-(methylamino)-1-oxopropan-2-yl]-4-(2,2,2-trifluoroethoxy)pyridine-2-carboxamide] | > 10 | 0.292 | – | – | – |
| CCC(O)CNC(=O)c1cc(OCC2CC2)c(C2CC2)cn1 (centres unmarked) [Example 58, 5-Cyclopropyl-4-cyclopropylmethoxy-pyridine-2-carboxylic acid (2-hydroxy-butyl)-amide] | > 10 | 0.0637 | – | – | – |
| O=C(N[C@@H](c1cccnc1)C(F)(F)F)c1cc(OCC2CC2)c(Cl)cn1 [Example 22, 5-Chloro-4-cyclopropylmethoxy-pyridine-2-carboxylic acid ((S)-2,2,2-trifluoro-1-pyridin-3-yl-ethyl)-amide] | > 10 | 0.0057 | – | – | – |
| CCC[C@H](CO)NC(=O)c1cc(OCC2CC2)c(Cl)cn1 [Example 13, 5-Chloro-4-cyclopropylmethoxy-pyridine-2-carboxylic acid ((R)-1-hydroxymethyl-butyl)-amide] | > 10 | 0.146 | – | – | – |
| Cn1nnnc1C(C)(CC1CC1)NC(=O)c1cc(OCC(F)(F)F)c(C2CC2)cn1 (single isomer, unassigned) [Example 228, 5-cyclopropyl-N-[1-cyclopropyl-2-(1-methyltetrazol-5-yl)propan-2-yl]-4-(2,2,2-trifluoroethoxy)pyridine-2-carboxamide] | – | – | > 10 | 0.0346 | – |
| CC(C)(C)C(NC(=O)c1cc(OCC(F)(F)F)c(C2CC2)cn1)C(=O)N1CCC1 (centres unmarked) [Example 196, N-[1-(azetidin-1-yl)-3,3-dimethyl-1-oxobutan-2-yl]-5-cyclopropyl-4-(2,2,2-trifluoroethoxy)pyridine-2-carboxamide] | > 10 | 0.0012 | – | – | – |
| CCC(C)(NC(=O)c1cc(OCC(F)(F)F)c(C2CC2)cn1)C(N)=O (centres unmarked) [Example 77, 5-Cyclopropyl-4-(2,2,2-trifluoro-ethoxy)-pyridine-2-carboxylic acid (1-carbamoyl-1-methyl-propyl)-amide] | > 10 | 0.137 | – | – | – |
| CNC(=O)CC1(NC(=O)c2cc(OCC(F)(F)F)c(C3CC3)cn2)CS(=O)(=O)C1 [Example 282, 5-cyclopropyl-N-[3-[2-(methylamino)-2-oxoethyl]-1,1-dioxothietan-3-yl]-4-(2,2,2-trifluoroethoxy)pyridine-2-carboxamide] | > 10 | 0.659 | – | – | – |
| CC(C)C[C@H](NC(=O)c1cc(OCC(F)(F)F)c(C2CC2)cn1)C(N)=O [Example 52, 5-Cyclopropyl-4-(2,2,2-trifluoro-ethoxy)-pyridine-2-carboxylic acid ((S)-1-carbamoyl-3-methyl-butyl)-amide] | > 10 | 0.0778 | – | – | – |
| C[C@H](Oc1cc(C(=O)NC(C(=O)N2CCC2)C(C)(C)C)ncc1C1CC1)C(F)(F)F (stereo partly drawn) [Example 202, N-[1-(azetidin-1-yl)-3,3-dimethyl-1-oxobutan-2-yl]-5-cyclopropyl-4-[(2S)-1,1,1-trifluoropropan-2-yl]oxypyridine-2-carboxamide] | > 10 | 0.0022 | – | – | – |
| CC(CC1CC1)(NC(=O)c1cc(OCC(F)(F)F)c(C2CC2)cn1)c1noc(N)n1 (single isomer, unassigned) [Example 208, N-[2-(5-amino-1,2,4-oxadiazol-3-yl)-1-cyclopropylpropan-2-yl]-5-cyclopropyl-4-(2,2,2-trifluoroethoxy)pyridine-2-carboxamide] | – | – | – | 0.0092 | > 10 |
